From patent US20080227725A1, “Cosmetic or pharmaceutical composition comprising peptides, uses and treatment processes” (priority 2002, published 2008)
Where a SMILES comes first, the peptide text is derived from it.

Test system: ERG 1-2 molecule
Assay: Cell differentiation marker ERG 1-2 in HaCat keratinocytes, immunofluorescence
Format: cell-based
Conditions: HaCat human keratinocytes, at 24 hours

- quantity of ERG molecules present in the cells (intensity of fluorescence), cell differentiation: increases the quantity of ERG molecules
SMILES: N=C(N)NCCC[C@H](N)C(=O)NCC(=O)N[C@@H](CO)C(=O)O [Arg-Gly-Ser] (H-Arg-Gly-Ser-OH)
